Format in all cases: cell-based
The test system of assay [1] is Thrombin-stimulated Ca2+ response in HT-29 cells. The assay is described as follows: Ca FLIPR TETRA assay, ANTAGONIST mode, activator 1 U/mL Thrombin. Particulars: HT-29 cells, activator 1 U/mL Thrombin. In outline: (§1)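 HT-29 cells in 1% FBS/McCoy's overnight, loaded with FLIPR Calcium 5 dye (45 min 37 °C, 15 min r.t.); compounds added and read for intrinsic Ca2+ activation, then after 30 min r.t. stimulated with fixed activator: 8 μM SLIGKV, 0.6 μM UTP, 1 U/mL thrombin or 3.1 U/mL trypsin (final).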

Assay [2] has as its target T1, PAR2 (HT-29 cells) (Homo sapiens, UniProt P55085).
T1 construct: host or cells: HT-29
T1 sequence (P55085 26-397): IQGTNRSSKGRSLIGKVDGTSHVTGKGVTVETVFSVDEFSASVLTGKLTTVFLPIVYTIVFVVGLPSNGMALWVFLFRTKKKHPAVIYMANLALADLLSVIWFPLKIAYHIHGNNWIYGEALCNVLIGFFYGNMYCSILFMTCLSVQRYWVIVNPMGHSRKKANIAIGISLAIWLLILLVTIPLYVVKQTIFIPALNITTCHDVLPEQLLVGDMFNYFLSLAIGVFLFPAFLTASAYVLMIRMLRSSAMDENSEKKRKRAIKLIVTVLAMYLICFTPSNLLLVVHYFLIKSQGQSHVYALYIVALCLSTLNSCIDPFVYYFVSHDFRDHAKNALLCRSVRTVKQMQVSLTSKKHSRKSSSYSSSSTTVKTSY
The assay is described as follows: Ca FLIPR TETRA assay, ANTAGONIST mode, activator 3.1 U/mL trypsin. Particulars: HT-29 cells; activator 3.1 U/mL trypsin; Method A: maximal concentration of antagonist 0.1, 1 or 2 μM. In outline:
as §1

Assay [3] deals with T1, PAR2 (HT-29 cells). The assay is described as follows: Ca FLIPR TETRA assay, ANTAGONIST mode, activator 8 μM SLIGKV. Particulars: HT-29 cells; activator 8 μM SLIGKV; Method A: maximal concentration of antagonist 0.1, 1 or 2 μM. In outline: as §1
For assay [4], the system named is UTP-stimulated Ca2+ response in HT-29 cells. The assay is described as follows: Ca FLIPR TETRA assay, ANTAGONIST mode, activator 0.6 μM UTP. Particulars: HT-29 cells, activator 0.6 μM UTP. In outline: as §1

One may read the IC50 as the concentration that gives 50% inhibition.

As for `CC(C)(C)c1cc(-c2ccc(Cl)cc2)nc2cc(C(=O)N3CCN(C(=O)CC4(C(=O)O)CCC4)CC3(C)C)oc12` [Example I-337], the IC50 in assay [1] (Homo sapiens) was more than 2000 nM; in assay [2], 0.9 nM; in assay [3] it was 0.4 nM; in assay [4] (Homo sapiens) it was more than 2000 nM.

For the compound `CC1(C)CCC(c2cc(C(C)(C)C)c3oc(C(=O)N4CCN(C(=O)CC5(C(=O)O)CCC5)CC4(C)C)cc3n2)CC1` [Example I-338], the IC50 in assay [1] (Homo sapiens) was more than 2000 nM; in assay [2], 0.5 nM; in assay [3], 0.3 nM; in assay [4] (Homo sapiens), more than 2000 nM.

In the case of `Cc1ccnc(N2CCN(C(=O)c3cc4nc(C5CCC(C)(C)CC5)cc(C(C)(C)C)c4o3)C(C)(C)C2=O)n1` [Example I-339], the IC50 in assay [1] (Homo sapiens) was more than 2000 nM; in assay [2] it was 3.1 nM; in assay [3], 1.3 nM; in assay [4] (Homo sapiens), more than 2000 nM.

Take `Cc1ccnc(N2CCN(C(=O)c3cc4nc(-c5ccc(Cl)cc5)cc(C(C)(C)C)c4o3)C(C)(C)C2=O)n1` [Example I-340]: the IC50 was more than 2000 nM in assay [1] (Homo sapiens), 1.7 nM in assay [2], 0.9 nM in assay [3] and more than 2000 nM in assay [4] (Homo sapiens).

As to `CC(C)(C)c1cc(-c2ccc(Cl)cc2)nc2cc(C(=O)N3CCN(c4ncc(-c5nnn[nH]5)cn4)CC3(C)C)oc12` [Example I-341], the IC50 in assay [1] (Homo sapiens) was more than 2000 nM; in assay [2] it was 4.4 nM; in assay [3] it was 1.6 nM; in assay [4] (Homo sapiens) it was 1700 nM.

As for `Cn1nccc1S(=O)(=O)N1CCN(C(=O)c2cc3nc(-c4ccc(Cl)c(F)c4)cc(C(C)(C)C)c3o2)C(C)(C)C1=O` [Example I-342], the IC50 is more than 2000 nM in assay [1] (Homo sapiens), 90 nM in assay [2], 94 nM in assay [3] and more than 2000 nM in assay [4] (Homo sapiens).

With `CC(C)[C@H](CC(=O)N1CCN(C(=O)c2cc3nc(-c4ccc(Cl)c(F)c4)cc(C(C)(C)C)c3o2)C(C)(C)C1)C(=O)O` [Example I-343], the IC50 came to 1700 nM in assay [1] (Homo sapiens), 0.4 nM in assay [2], 0.2 nM in assay [3] and 2100 nM in assay [4] (Homo sapiens).

For `CC(C)(C)c1cc(-c2ccc(Cl)c(F)c2)nc2cc(C(=O)N3CCN(c4cccc(-c5nnn[nH]5)n4)CC3(C)C)oc12` [Example I-344], the IC50 in assay [1] (Homo sapiens) was more than 2000 nM; in assay [2] it was 0.2 nM; in assay [3], 0.1 nM; in assay [4] (Homo sapiens) it was more than 2000 nM.

Regarding `CC1(C)CCC(c2cc(C(C)(C)C)c3oc(C(=O)N4CCN(c5cccc(-c6nnn[nH]6)n5)CC4(C)C)cc3n2)CC1` [Example I-345], the half-inhibitory concentration (IC50) in assay [1] (Homo sapiens) is more than 2000 nM; in assay [2] it was 0.7 nM; in assay [3] it was 0.3 nM; in assay [4] (Homo sapiens) it was more than 2000 nM.

Turning to `CC1(C)CCC(c2cc(C(C)(C)C)c3oc(C(=O)N4CCN(c5ncc(-c6nnn[nH]6)cn5)CC4(C)C)cc3n2)CC1` [Example I-346], the IC50 in assay [1] (Homo sapiens) came to 2100 nM; in assay [2], 4.1 nM; in assay [3], 1.6 nM; in assay [4] (Homo sapiens), 1000 nM.

As for `CN(CC(=O)O)CC(=O)N1CCN(C(=O)c2cc3nc(-c4ccc(Cl)cc4)cc(C(C)(C)C)c3o2)C(C)(C)C1` [Example I-347], the IC50 in assay [1] (Homo sapiens) is more than 2000 nM; in assay [2] it was 500 nM; in assay [3] it was 290 nM; in assay [4] (Homo sapiens), more than 2000 nM.

As for `CC(C)(C)c1cc(-c2ccc(Cl)c(F)c2)nc2cc(C(=O)N3CCN(c4ccnnc4)CC3(C)C)oc12` [Example I-348], the IC50 was more than 2000 nM in assay [1] (Homo sapiens), 38 nM in assay [2], 67 nM in assay [3] and more than 2000 nM in assay [4] (Homo sapiens).

On to `CC(C)(C)c1cc(-c2ccc(Cl)cc2)nc2cc(C(=O)N3CCN(c4ccnnc4)CC3(C)C)oc12` [Example I-349], for which the IC50 in assay [1] (Homo sapiens) was more than 2000 nM; in assay [2], 75 nM; in assay [3] it was 80 nM; in assay [4] (Homo sapiens), more than 2000 nM.

As to `CC(C)(C)c1cc(-c2ccc(Cl)cc2)nc2cc(C(=O)N3CCN(c4cccc(-c5nnn[nH]5)n4)CC3(C)C)oc12` [Example I-350], the IC50 in assay [1] (Homo sapiens) is more than 2000 nM; in assay [2], 0.3 nM; in assay [3] it was 0.08 nM; in assay [4] (Homo sapiens) it was more than 2000 nM.

With `CC(C)(C)c1cc(-c2ccc(Cl)c(F)c2)nc2cc(C(=O)N3CCN(c4ncccc4C(=O)O)CC3(C)C)oc12` [Example I-351], the IC50 in assay [1] (Homo sapiens) was more than 2000 nM; in assay [2] it was 9 nM; in assay [3], 5.1 nM; in assay [4] (Homo sapiens), more than 2000 nM.

As for `Cc1ccc(C(=O)O)c(N2CCN(C(=O)c3cc4nc(-c5ccc(Cl)c(F)c5)cc(C(C)(C)C)c4o3)C(C)(C)C2)n1` [Example I-352], the IC50 in assay [1] (Homo sapiens) was more than 2000 nM; in assay [2], 3.1 nM; in assay [3], 2.1 nM; in assay [4] (Homo sapiens), 2000 nM.

As for `CC(C)(C)c1cc(-c2ccc(Cl)c(F)c2)nc2cc(C(=O)N3CCN(S(C)(=O)=O)C(=O)C3(C)C)oc12` [Example I-353], the concentration for half-maximal inhibition (IC50) in assay [1] (Homo sapiens) is more than 2000 nM; in assay [2], 34 nM; in assay [3], 38 nM; in assay [4] (Homo sapiens), more than 2000 nM.

As to `CC1(C)CCC(c2cc(C(C)(C)C)c3oc(C(=O)N4CCN(C(=O)CCC(C)(C)C(=O)O)CC4(C)C)cc3n2)CC1` [Example I-354], the IC50 is more than 2000 nM in assay [1] (Homo sapiens), 0.4 nM in assay [2], 0.3 nM in assay [3] and more than 2000 nM in assay [4] (Homo sapiens).

Consider `Cc1ccc(N2CCN(C(=O)c3cc4nc(-c5ccc(Cl)c(F)c5)cc(C(C)(C)C)c4o3)C(C)(C)C2=O)nn1` [Example I-355], for which the IC50 in assay [1] (Homo sapiens) is more than 2000 nM; in assay [2], 16 nM; in assay [3] it was 14 nM; in assay [4] (Homo sapiens), more than 2000 nM.

As to `Cn1cc(N2CCN(C(=O)c3cc4nc(-c5ccc(Cl)c(F)c5)cc(C(C)(C)C)c4o3)C(C)(C)C2=O)nn1` [Example I-356], the IC50 in assay [1] (Homo sapiens) is more than 2000 nM; in assay [2], 14.1 nM; in assay [3], 12 nM; in assay [4] (Homo sapiens), more than 2000 nM.

Regarding `CC(C)(C)c1cc(-c2ccc(Cl)c(F)c2)nc2cc(C(=O)N3CCN(c4cccnn4)C(=O)C3(C)C)oc12` [Example I-357], the IC50 in assay [1] (Homo sapiens) is more than 2000 nM; in assay [2], 10 nM; in assay [3], 8.3 nM; in assay [4] (Homo sapiens), more than 2000 nM.

As to `Cc1nccnc1N1CCN(C(=O)c2cc3nc(-c4ccc(Cl)c(F)c4)cc(C(C)(C)C)c3o2)C(C)(C)C1=O` [Example I-359], the IC50 in assay [1] (Homo sapiens) was more than 2000 nM; in assay [2], 43 nM; in assay [3] it was 37 nM; in assay [4] (Homo sapiens), more than 2000 nM.

Turning to `CC(C)(C)c1cc(-c2ccc(Cl)c(F)c2)nc2cc(C(=O)N3CCN(c4cnccn4)C(=O)C3(C)C)oc12` [Example I-360], the IC50 was more than 2000 nM in assay [1] (Homo sapiens), 3.7 nM in assay [2], 2.4 nM in assay [3] and more than 2000 nM in assay [4] (Homo sapiens).

For the compound `CC(C)(C)c1cc(-c2ccc(Cl)c(F)c2)nc2cc(C(=O)N3CCN(c4ncccn4)C(=O)C3(C)C)oc12` [Example I-361], the IC50 in assay [1] (Homo sapiens) is more than 2000 nM; in assay [2], 4.6 nM; in assay [3], 2.8 nM; in assay [4] (Homo sapiens) it was more than 2000 nM.

As to `CC(C)(C)c1cc(-c2ccc(Cl)c(F)c2)nc2cc(C(=O)N3CCN(C(=O)C4CC5(CC(C(=O)O)C5)C4)C(=O)C3(C)C)oc12` (stereo not drawn) [Example I-362], the IC50 is more than 1100 nM in assay [1], 1 nM in assay [2], 0.7 nM in assay [3] and more than 1100 nM in assay [4].

As for `CC(C)(C)c1cc(-c2ccc(Cl)c(F)c2)nc2cc(C(=O)N3CCc4cnc(CC(=O)O)nc4C3(C)C)oc12` [Example I-363], the IC50 was more than 2000 nM in assay [1] (Homo sapiens), 0.9 nM in assay [2], 0.6 nM in assay [3] and more than 2000 nM in assay [4] (Homo sapiens).

Take `CC1(C)CCC(c2cc(C(C)(C)C)c3oc(C(=O)N4CCN(C(=O)C5CC6(CC(C(=O)O)C6)C5)CC4(C)C)cc3n2)CC1` (stereo not drawn) [Example I-364]: the IC50 in assay [1] (Homo sapiens) was more than 2000 nM; in assay [2], 1.2 nM; in assay [3] it was 1.2 nM; in assay [4] (Homo sapiens), 1700 nM.

In the case of `CC(C)(C)c1cc(-c2ccc(Cl)c(F)c2)nc2cc(C(=O)N3CCN(c4nc(C(=O)O)ccc4Cl)CC3(C)C)oc12` [Example I-365], the IC50 is more than 2000 nM in assay [1] (Homo sapiens), 0.3 nM in assay [2], 0.2 nM in assay [3] and more than 2000 nM in assay [4] (Homo sapiens).

As to `CC(C)(CCC(=O)N1CCN(C(=O)c2cc3nc(-c4ccc(Cl)cc4)cc(C(C)(C)C)c3o2)C(C)(C)C1)C(=O)O` [Example I-366], the IC50 in assay [1] (Homo sapiens) is more than 2000 nM; in assay [2], 1.1 nM; in assay [3] it was 0.8 nM; in assay [4] (Homo sapiens) it was more than 2000 nM.

Consider `CC(C)(CCC(=O)N1CCN(C(=O)c2cc3nc(-c4ccc(Cl)c(F)c4)cc(C(C)(C)C)c3o2)C(C)(C)C1)C(=O)O` [Example I-367], for which the IC50 in assay [1] (Homo sapiens) is more than 1550 nM; in assay [2] it was 0.4 nM; in assay [3], 0.2 nM; in assay [4] (Homo sapiens), more than 1550 nM.

The record behind these values is US20180057505A1, “BICYCLIC HETEROARYL COMPOUNDS USEFUL AS INHIBITORS OF THE PAR-2 SIGNALING PATHWAY” (VERTEX PHARMACEUTICALS INCORPORATED, priority 2015, published 2018).
